Assay results: patent US12025596B2, “6-oxo-pipecolic acid quantitation by mass spectrometry” (THE REGENTS OF THE UNIVERSITY OF COLORADO, priority 2018, dated 2024)
Where “and” joins values, the source holds several entries; their conditions need not be identical. Equal entries are not always repeated. Entries after “also recorded” stand apart in the source; their conditions may differ.

Assays:
[1] = 4-month biomarker stability study in urine samples; format: physicochemical, human; details: for concentration: PDE urine; for decrease at 126 days: room temperature
Description: Liquid chromatography tandem mass spectrometry experiments: Lysine metabolites were first analyzed based on previously published liquid chromatography tandem mass spectrometry (LC-MS/MS) methods (Struys, Jakobs 2007, Molecular Genetics and Metabolism 91:405; Yuzyuk et al. 2016, J Chromatogr B Analyt Technol Biomed Life Sci, 1017-1018:145-52). As the goal of this study was to replicate current newborn screening modalities, we focused on a non-derivatized MS/MS analytical method (Nagy et al. 2003, Rapid Commun Mass Spectrom 17:983-90). Samples were analyzed via electrospray ionization in positive ion mode (ESI+) using an Applied Biosystems Sciex 4000 (Applied Biosystems) equipped with a Shimadzu HPLC (Shimadzu Scientific Instruments) and a Leap auto-sampler (LEAP Technologies). Methanol (MeOH):acetonitrile (ACN) 200 μL 1:1 mixture was added to 100 μL of plasma, blood, urine, CSF or standard materials. Plasma and blood samples were centrifuged at 10,000 rpm and the supernatants used. Urine and CSF samples required no additional processing. […] Samples were analyzed using the following conditions: i) ion-spray voltage of 5500 V; ii) temperature, 450° C.; iii) collision using nitrogen gas with curtain gas (CUR) set at 10 and collisionally activated dissociation (CAD) set at 12; iv) ion source gas one (GS1) and two (GS2) were set at 30; v) entrance potential was set at 10 V; vi) quadruple one (Q1) and (Q3) were set on unit resolution; vii) dwell time was set at 200 msec.
Biomarker stability studies: In a 4-month stability study, fresh urine samples (400 μL) from two subjects were aliquoted into 1.5 mL Eppendorf tubes and stored either at room temperature (22±2° C.), freezer (−13±3° C.) or deep freezer (−77±3° C.) and sampled over four-months.
(§1) As a primary aim of this research was to evaluate biomarkers suitable for newborn screening, we analyzed blood spots (Whatman 903 Lot W-041) from two subjects and controls. […] A freeze-thaw study and a 4-month stability study was done in urine samples from subjects 1 and 2 (Table 4).
(§2) To quantify 6-Oxo-PIP and Δ^1-P6C/P6CH, we prepared standard curves ranging from 0.5-500 μM from control urine (FIGS. 5 and 6). In a freeze-thaw study (6-Oxo-PIP, FIG. 6; and P6C/P6CH, FIG. 7) and a 4-month stability study (FIG. 8 and FIG. 9B), fresh urine samples (400 μL) were aliquoted into 1.5 mL Eppendorf tubes and stored either at room temperature (22±2° C.), regular freezer (−13±3° C.) or deep freezer (−77±3° C.) and sampled over a four-month period. First, both biomarkers Δ^1-P6C/P6CH and 6-Oxo-PIP were stable via four freeze-thaw cycles (6-Oxo-PIP FIG. 6; and Δ^1-P6C/P6CH FIG. 7). The initial 6-Oxo-PIP concentrations observed with patient one and patient two were 298±23 and 440±4 μM, respectively. […] The original concentrations of Δ^1-P6C/P6CH for patient one and two were 16.1±1.9 μM and 27.1±2.0 μM, respectively, an order of magnitude less than 6-oxo-PIP. […] Even after 126 days storage, roughly half of the Δ^1-P6C/P6CH from the original sample (day 1) remained.

[2] = Blood spot stability at room temperature; format: physicochemical, human; details: blood spots (Whatman 903) stored at room temperature
Description: as §1

[3] = 4-month biomarker stability study in urine samples; format: physicochemical, human; details: PDE urine, −70° C.
[4] = Four freeze-thaw cycle stability in urine; format: physicochemical, human; details: urine from PDE patients
Experimental: as §1, §2

[5] = Cytosolic, S9, mitochondrial and plasma metabolism of lysine metabolites; format: in vitro ADME, human
Experimental: Cytosolic and mitochondrial metabolism of lysine metabolites: Human liver cytosol 100 μL (10 mg/mL) or S9 fraction 100 μL (20 mg/mL) and 100 μL NAD+ (1.2 mM final) in 400 μL PBS pH 7.4 were preincubated at 37° C. for 5 min, followed by addition of 100 μL Δ1-P6C (100 μM); 100 μL samples were taken at 0.5, 5, 20 and 50 min, added to 300 μL 1:1 MeOH:ACN and analysed by LC-MS/MS. To probe potential phase II metabolism, 100 μL human liver microsomes (20 mg protein/mL) were similarly incubated with 4.0 mM UDPGA.
Human liver mitochondria were freshly prepared by homogenization of a human liver sample with a Teflon pestle in 5% weight to volume Zheng buffer (Zheng et al. 1990, Biochim Biophys Acta 1019:1-10), and after centrifugation at 5600 g for 5 min, the supernatant was transferred to a centrifuge tube; this procedure was repeated on the resuspended pellet a second time. Both supernatants were combined, centrifuged at 37,500 g for 5 min, the resulting pellet resuspended in Zheng buffer, homogenized and similarly pelleted again, and resuspended in 300 μL Zheng buffer to provide a mitochondrial preparation, with protein concentration determined using the Bio-Rad Protein Assay. To access the mitochondrial matrix, the homogenate was subjected to 3 freeze-thaw cycles, followed by 2×7 bursts of sonication on ice using a Branson 450 digital sonifier with a 2-inch cup horn at 30% amplitude. Of this mitochondrial preparation 100 μL was similarly incubated with Δ1-P6C and analyzed as above.
Albeit small, the formation of 6-oxo-PIP raises the possibility of a second pathway. […] Thus, this alternative mechanism to AAA is not a major pathway.

concentration ([1]; Room Temperature, Subject 1, day 0): 298 ± 23 µM and 297.0 µM
concentration ([1]; Room Temperature, Subject 1, day 0, listed as 6-Oxo-PIP): 298 ± 23 µM
concentration ([1]; Room Temperature, Subject 1, day 1): 294.8 µM
concentration ([1]; Room Temperature, Subject 1, day 2): 283.5 µM
concentration ([1]; Room Temperature, Subject 1, day 3): 30.1 µM
concentration ([1]; Room Temperature, Subject 1, day 5): 257.6 µM
concentration ([1]; Room Temperature, Subject 1, day 7): 252.1 µM
concentration ([1]; Room Temperature, Subject 1, day 10): 234.7 µM
concentration ([1]; Room Temperature, Subject 1, day 14): 233.0 µM
concentration ([1]; Room Temperature, Subject 1, day 21): 197.5 µM
concentration ([1]; Room Temperature, Subject 1, day 60): 182.0 µM
concentration ([1]; Room Temperature, Subject 1, day 126): 170.0 µM
concentration ([1]; Room Temperature, Subject 2, day 0): 440 ± 4 µM and 440.1 µM
concentration ([1]; Room Temperature, Subject 2, day 0, listed as 6-Oxo-PIP): 440 ± 4 µM
concentration ([1]; Room Temperature, Subject 2, day 1): 390.8 µM
concentration ([1]; Room Temperature, Subject 2, day 2): 418.2 µM
concentration ([1]; Room Temperature, Subject 2, day 3): 387.7 µM
concentration ([1]; Room Temperature, Subject 2, day 5): 383.9 µM
concentration ([1]; Room Temperature, Subject 2, day 7): 346.0 µM
concentration ([1]; Room Temperature, Subject 2, day 10): 345.2 µM
concentration ([1]; Room Temperature, Subject 2, day 14): 330.2 µM
concentration ([1]; Room Temperature, Subject 2, day 21): 322.6 µM
concentration ([1]; Room Temperature, Subject 2, day 60): 312.3 µM
concentration ([1]; Room Temperature, Subject 2, day 126): 295.3 µM
concentration ([1]; −15° C., Subject 1, day 0): 284.8 µM
concentration ([1]; −15° C., Subject 1, day 3): 243.1 µM
concentration ([1]; −15° C., Subject 1, day 7): 260.8 µM
concentration ([1]; −15° C., Subject 1, day 10): 285.1 µM
concentration ([1]; −15° C., Subject 1, day 14): 219.7 µM
concentration ([1]; −15° C., Subject 1, day 21): 227.7 µM
concentration ([1]; −15° C., Subject 1, day 60): 218.4 µM
concentration ([1]; −15° C., Subject 1, day 126): 211.5 µM
concentration ([1]; −15° C., Subject 2, day 0): 387.6 µM
concentration ([1]; −15° C., Subject 2, day 3): 359.0 µM
concentration ([1]; −15° C., Subject 2, day 7): 345.0 µM
concentration ([1]; −15° C., Subject 2, day 10): 336.5 µM
concentration ([1]; −15° C., Subject 2, day 14): 385.3 µM
concentration ([1]; −15° C., Subject 2, day 21): 345.2 µM
concentration ([1]; −15° C., Subject 2, day 60): 322.3 µM
concentration ([1]; −15° C., Subject 2, day 126): 314.3 µM
concentration ([1]; −70° C., Subject 1, day 0): 284.8 µM
concentration ([1]; −70° C., Subject 1, day 3): 298.2 µM
concentration ([1]; −70° C., Subject 1, day 7): 271.9 µM
concentration ([1]; −70° C., Subject 1, day 10): 221.7 µM
concentration ([1]; −70° C., Subject 1, day 14): 218.9 µM
concentration ([1]; −70° C., Subject 1, day 21): 217.4 µM
concentration ([1]; −70° C., Subject 1, day 60): 211.3 µM
concentration ([1]; −70° C., Subject 1, day 126): 198.4 µM
concentration ([1]; −70° C., Subject 2, day 3): 356.4 µM
concentration ([1]; −70° C., Subject 2, day 7): 329.2 µM
concentration ([1]; −70° C., Subject 2, day 10): 380.3 µM
concentration ([1]; −70° C., Subject 2, day 14): 418.3 µM
concentration ([1]; −70° C., Subject 2, day 21): 320.1 µM
concentration ([1]; −70° C., Subject 2, day 126): 322.7 µM
initial decrease within the first two weeks ([1]; urine, regardless of storage temperature): 20-21%
decrease at 126 days ([1]; urine, subject 1): 43%
decrease at 126 days ([1]; urine, subject 2): 33%
signal in blood spots [2]: noted in the initial blood spot
concentration ([3]; Subject 2, day 0): 387.6 µM
concentration ([3]; Subject 2, day 60): 340.7 µM
stability via four freeze-thaw cycles [4]: stable
SMILES: O=C1CCC[C@@H](C(=O)O)N1 [6-oxo-PIP, (S)-6-oxopiperidine-2-carboxylic acid]
stability at room temperature ([1]; urine samples stored at room temperature (22±2° C.)): considerably more stable than Δ^1-P6C/P6CH; also recorded: measurable for up to four months
conversion to AAA (hydrolytic ring opening) ([5]; incubation with human S9): none of these experiments showed a conversion
conversion to AAA (hydrolytic ring opening) ([5]; incubation with human cytosol): none of these experiments showed a conversion
conversion to AAA (hydrolytic ring opening) ([5]; incubation with human plasma (e.g. esterase activity)): none of these experiments showed a conversion
